# Laboratory results reported in US8551997B2, “Structural-based inhibitors of the glutathione binding site in aldose reductase, methods of screening therefor and methods of use” (The Board of Regents of the University of Texas System, priority 2004, dated 2013).
# Columns and labels:
# Caco-2 cells [1] = experiment: Flowcytometric cell cycle analysis, Caco-2; type: cell-based, human; conditions: sorbinil 20 μM
# Experimental: The Caco-2 and A549 cells were grown separately in 6 well plates at a density of approximately 1.5×10^5 cells/well. Growth-arrested Caco-2 cells were pre-incubated with or without sorbinil 20 μM or carrier for 24 h and then stimulated with either 10 ng/ml BFGF or PDGF for another 24 h. After 24 hrs A549 cells were incubated with or without sorbinil at different concentrations for another 24 h.
# The Caco-2 and A549 cells were then washed with PBS and harvested by trypsinization. Cellular DNA was stained with low and high salt solutions. Briefly, cells were resuspended in 250 μl of solution A, low salt stain, containing polyetheleneglycol (30 mg/ml), propidium iodide (0.05 mg/ml), triton-x-100 (1 μl/ml), sodium citrate 4 mM, RNAse A 10 μg/ml and incubated at 37° C. for 20 min followed by the addition of 250 μl of solution B, high salt stain containing 400 mM NaCl instead of 4 mM sodium citrate in solution A, and incubated overnight at 4° C. Cell cycle analysis was performed with a minimum of 10,000 events per analysis by using FACScan flow cytometer (Becton, Dickinson and Co., San Jose, Calif., USA).
# Caco-2 cells [2] = experiment: NF-kB p65 transcription factor (DNA binding) assay; type: cell-based, human
# Experimental: The cytosolic as well as nuclear extracts were prepared as described earlier (15) and the NF-kB activity was determined by using the colorimetric non-radioactive NF-kB p65 Transcription Factor Assay kit (Chemicon Intl.) as per the supplier's instructions. Briefly, a double stranded biotinylated oligonucleotide containing the consensus sequence for NF-kB binding (5′-[…]-3′; SEQ ID NO: 3) was mixed with nuclear extract and assay buffer. After incubation, the mixture (probe+extract+buffer) was transferred to the streptavidin-coated ELISA kit and read at 450 nm using an ELISA plate reader. For each experiment, triplicate samples were measured for statistical significance.
substance,measurement,setting,value
"(S)-6-fluorospiro[chroman-4,4′-imidazolidine]-2,5′-dione [sorbinil]",percentage of cells in G1,Caco-2 cells [1]; Control,54.97%
same,percentage of cells in G2,Caco-2 cells [1]; Control,5.32%
same,percentage of cells in S,Caco-2 cells [1]; Control,39.71%
same,percentage of cells in G1,Caco-2 cells [1]; FGF,36.31%
same,percentage of cells in G2,Caco-2 cells [1]; FGF,1.54%
same,percentage of cells in S,Caco-2 cells [1]; FGF,52.15%
same,percentage of cells in G1,Caco-2 cells [1]; PDGF,36.18%
same,percentage of cells in G2,Caco-2 cells [1]; PDGF,12.10%
same,percentage of cells in S,Caco-2 cells [1]; PDGF,51.71%
same,inhibition of BFGF or PDGF-induced NF-kB DNA binding activity,Caco-2 cells [2],> 70%
